Here are results for two molecules from patent US4788301A, “Novel allylic amines” (Merrell Dow Pharmaceuticals Inc., priority 1987, dated 1988).

By kinact is commonly meant the maximal first-order rate at which the target is inactivated.

Test [1] concerns the target T1, dopamine β-hydroxylase (DBH) (Bos taurus, UniProt P15101).
T1 sequence (P15101 1-610): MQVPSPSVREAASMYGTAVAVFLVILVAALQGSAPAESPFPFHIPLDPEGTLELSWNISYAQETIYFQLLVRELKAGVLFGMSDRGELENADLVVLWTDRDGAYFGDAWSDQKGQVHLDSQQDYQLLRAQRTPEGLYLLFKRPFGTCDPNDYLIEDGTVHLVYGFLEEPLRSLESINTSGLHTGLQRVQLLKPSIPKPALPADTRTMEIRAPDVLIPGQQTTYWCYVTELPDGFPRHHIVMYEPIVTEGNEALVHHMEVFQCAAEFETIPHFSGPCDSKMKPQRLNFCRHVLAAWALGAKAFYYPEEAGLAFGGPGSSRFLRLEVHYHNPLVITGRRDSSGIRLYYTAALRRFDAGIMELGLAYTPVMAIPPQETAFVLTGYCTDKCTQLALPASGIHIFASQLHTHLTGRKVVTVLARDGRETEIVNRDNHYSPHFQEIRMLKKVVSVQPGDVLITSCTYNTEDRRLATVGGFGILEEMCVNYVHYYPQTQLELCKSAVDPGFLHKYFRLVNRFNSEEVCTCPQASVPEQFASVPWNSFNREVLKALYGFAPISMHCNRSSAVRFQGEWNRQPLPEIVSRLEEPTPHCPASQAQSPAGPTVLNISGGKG
In words: Dopamine β-hydroxylase (DBH) inhibitory activity in vitro, time-dependent inactivation (Table I). Type of test: biochemical. Particulars: for Ki: inhibition constant for inactivation of DBH; for Ki / kinact: tyramine substrate, pH 5, Kitz and Wilson; for kinact: rate of inactivation of DBH. How it is done: The dopamine β-hydroxylase inhibitory properties of the compounds of this invention can readily be determined by standard and well known procedures such as those procedures set forth in U.S. Pat. […] For example, determination of whether the DBH inhibition allows time-dependent kinetics is exemplified by the procedure wherein enzymatic oxygenation by DBH is determined in aqueous solution in the presence of molecular oxygen, an electron donor such as ascorbate, and the necessary cofactors for the enzyme at a pH of 5 and a temperature of 20°-40° C., preferably 37° C. The test compound is added at the desired concentration, and the system is incubated. At different time intervals, aliquots are taken and DBH activity is measured using tyramine as the substrate and the reaction followed by measuring the oxygen uptake using a polarographic electrode and an oxygen monitor by the method of S. May et al., J. Biol. Chem. 256, 2258 (1981). The inhibition constants for the inactivation of DBH by each compound are then determined by conventional procedures such as the method of Kitz and Wilson, J. Biol. Chem. 237, 3245 (1962). When the compounds shown in Table I were tested according to the above described procedure, the DBH inhibitory activity increased as a function of the time of incubation. The initial rate of decrease of activity increased with increasing concentration of inhibitor.

Another test has as its system hypertensive rats. In words: Antihypertensive activity in vivo in hypertensive rats (Table II). The arrangement: species or system rat. Here is the method:
The ability of the compounds of this invention to lower blood pressure can be determined in vivo using hypertensive rats according to standard and well known procedures. The test compound is administered intraperitoneally (ip) or orally (po) to rats and the blood pressure monitored continuously. Since DBH is a major enzyme in the synthetic pathway of the catecholamines, it would be expected that the presence of an inhibitor would act to decrease the amount of catecholamines produced, and thereby have an antihypertensive effect.

A further test deals with T2, MAO A (Rattus norvegicus, UniProt P21396).
T2 construct: from tissue; host or cells: rat brain mitochondria
T2 sequence (P21396 1-526): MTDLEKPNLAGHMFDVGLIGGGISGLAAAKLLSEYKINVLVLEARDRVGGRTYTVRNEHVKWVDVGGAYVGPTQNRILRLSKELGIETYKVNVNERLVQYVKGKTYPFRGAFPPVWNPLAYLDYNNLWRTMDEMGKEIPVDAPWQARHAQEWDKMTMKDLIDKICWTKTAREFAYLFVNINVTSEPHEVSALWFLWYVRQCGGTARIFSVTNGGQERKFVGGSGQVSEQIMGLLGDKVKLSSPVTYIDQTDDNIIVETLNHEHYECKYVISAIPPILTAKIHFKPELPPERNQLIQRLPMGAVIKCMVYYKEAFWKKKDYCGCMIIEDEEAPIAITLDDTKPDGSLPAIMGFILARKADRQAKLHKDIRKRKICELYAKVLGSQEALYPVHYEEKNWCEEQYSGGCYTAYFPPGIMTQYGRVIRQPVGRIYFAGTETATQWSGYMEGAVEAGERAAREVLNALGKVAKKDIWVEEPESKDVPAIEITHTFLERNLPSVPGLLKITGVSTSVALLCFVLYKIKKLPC
In words: Inhibition of rat brain mitochondrial MAO A (Table III). Type of test: biochemical. Here is the method: (§1) The compounds of this invention were conceived as mechanism-based inhibitors of DBH similar to that reported by S. May, J. Biol. Chem. 256, 2258 (1981). These compounds bear some resemblance to the catecholamines which are destroyed by the enzyme monoamine oxidase (MAO) in order to terminate neurotransmission. Because of their structural similarity to the catecholamines they may act as MAO substrates and, as such, act as k cat inhibitors of MAO. These compounds were evaluated as mechanism-based inhibitors of monooxygenasess by the method of A. Christmas et. al., Br. J. Pharmacol. 45, 490 (1972).

The target in a further test is T3, MAO B (Rattus norvegicus, UniProt P19643).
T3 construct: from tissue; host or cells: rat brain mitochondria
T3 sequence (P19643 1-520): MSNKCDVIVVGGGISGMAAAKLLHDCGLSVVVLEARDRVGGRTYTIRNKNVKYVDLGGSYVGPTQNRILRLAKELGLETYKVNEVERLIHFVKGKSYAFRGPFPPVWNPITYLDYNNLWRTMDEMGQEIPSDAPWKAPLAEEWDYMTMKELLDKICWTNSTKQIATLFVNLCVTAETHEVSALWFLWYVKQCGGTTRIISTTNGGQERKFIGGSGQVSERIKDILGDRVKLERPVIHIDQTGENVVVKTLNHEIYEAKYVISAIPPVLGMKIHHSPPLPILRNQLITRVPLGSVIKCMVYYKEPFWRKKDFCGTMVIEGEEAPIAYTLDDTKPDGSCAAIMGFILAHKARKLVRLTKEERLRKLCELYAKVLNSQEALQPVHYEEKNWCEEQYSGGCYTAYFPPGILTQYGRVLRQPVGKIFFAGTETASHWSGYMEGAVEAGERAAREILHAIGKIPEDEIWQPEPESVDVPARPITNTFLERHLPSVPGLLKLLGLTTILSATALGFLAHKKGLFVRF
Nature of the test: Inhibition of rat brain mitochondrial MAO B (Table III). Type of test: biochemical. How it is done: as §1

The test system of another test is purified DBH. Nature of the test: Time-dependant inhibition of purified DBH (Table III). Type of test: biochemical. How it is done:
The dopamine β-hydroxylase inhibitory properties of the compounds of this invention can readily be determined by standard and well known procedures such as those procedures set forth in U.S. Pat. No. 4,415,191. For example, determination of whether the DBH inhibition allows time-dependent kinetics is exemplified by the procedure wherein enzymatic oxygenation by DBH is determined in aqueous solution in the presence of molecular oxygen, an electron donor such as ascorbate, and the necessary cofactors for the enzyme at a pH of 5 and a temperature of 20°-40° C., preferably 37° C. The test compound is added at the desired concentration, and the system is incubated. At different time intervals, aliquots are taken and DBH activity is measured using tyramine as the substrate and the reaction followed by measuring the oxygen uptake using a polarographic electrode and an oxygen monitor by the method of S. May et al., J. Biol. Chem. 256, 2258 (1981). The inhibition constants for the inactivation of DBH by each compound are then determined by conventional procedures such as the method of Kitz and Wilson, J. Biol. Chem. 237, 3245 (1962). When the compounds shown in Table I were tested according to the above described procedure, the DBH inhibitory activity increased as a function of the time of incubation. […]

Test [2] has as its system Rat Brain - Mitochondrial MAO. In words: Time-dependant inhibition of rat brain mitochondrial MAO (Table III). Type of test: biochemical. How it is done:
as §1

The structures appear in SMILES notation. “Also recorded” adds a separate entry of the source.

In the case of `C=C(CN)c1cccs1` [β-Methylene-2-Thiopheneethanamine, β-methylene-2-thiopheneethanamine], in test [1] (2- vs. 3-thiophene isomer, Table I), the “Relative DBH inhibitory potency of the isomers” value was “the more potent isomer”. Further, the values for the Ki (in test [1]; at MAO A; at MAO B) were 2000 µM, 320 µM and 110 µM, respectively. In test [1], the kinact was 0.000333 s⁻¹. Moreover, the “Maximum % Change Mean Blood Pressure” value with hypertensive rats (10 mg/kg ip) is on record as 11%; with hypertensive rats (30 mg/kg ip), 22%; in the test with hypertensive rats (50 mg/kg po), 11%; with hypertensive rats (100 mg/kg ip) it was 52%; in the test on hypertensive rats (100 mg/kg po) it was 14%; in the test with hypertensive rats (200 mg/kg po), 14%. At MAO A, the “MAO A Tau50” value stood at 2.6 min. Moreover, the “MAO B Tau50” value on MAO B is 4.9 min. The “Time-dependant inhibition t1/2” value with purified DBH (5.10^-5 M final concentration, purified DBH) is 7 min. The “DBH inhibitory activity (in words)” value in the test on purified DBH (compared with MAO inhibition) is “potent DBH inhibitory activity”. For the same molecule, the “MAO inhibition (in words)” value in test [2] was “weak MAO inhibitory activity; also recorded: Weak time-dependant MAO inhibitor”.

Regarding `C=C(CN)c1ccsc1` [β-Methylene-3-Thiopheneethanamine, β-methylene-3-thiopheneethanamine], in test [1], the Ki was 2000 µM and the kinact is 6.67e-05 s⁻¹.
